Data reported in patent US12569467B2, “Small molecules that treat or prevent viral infections” (priority 2022, dated 2026).

Test system: SARS-CoV-2 Spike protein pseudotyped lentiviral particles
Experiment: microbe, parasite or virus in culture
Assay type: cell-based
Settings: Severe acute respiratory syndrome coronavirus 2, HEK293, read-out: half-maximal effective concentration (EC50), neutralization of SARS-CoV2 infection

O=C1Nc2ccccc2/C1=C\c1ccc(-c2cc(C(F)(F)F)cc(C(F)(F)F)c2)o1 [CD04872SC, 3-({5-[3,5-di(trifluoromethyl)phenyl]-2-furyl}methylidene)indolin-2-one]
EC50: 248 µM
